Data from patent publication US20040214832A1, “Piperazine derivative renin inhibitors” (priority 2003, published 2004).

Target: T1, human renin (Homo sapiens, UniProt P00797)
T1 sequence (P00797 67-406): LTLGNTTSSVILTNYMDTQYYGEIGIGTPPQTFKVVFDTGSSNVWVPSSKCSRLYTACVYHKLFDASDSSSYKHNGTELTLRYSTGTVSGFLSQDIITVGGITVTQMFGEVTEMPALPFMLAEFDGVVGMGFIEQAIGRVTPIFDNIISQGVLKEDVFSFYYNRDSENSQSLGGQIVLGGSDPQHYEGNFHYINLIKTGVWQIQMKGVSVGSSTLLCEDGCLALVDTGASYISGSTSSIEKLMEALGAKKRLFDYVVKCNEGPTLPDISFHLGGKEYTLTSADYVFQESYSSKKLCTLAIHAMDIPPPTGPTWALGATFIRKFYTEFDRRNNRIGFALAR
Test: Determination of renin IC50 by tGFP FRET assay
Format: biochemical
Settings: Human recombinant renin, tandem GFP substrate 650 nM, 60 min incubation with compound, pH 7.4, 11-point curve
How it was run: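 Human recombinant renin (final 50.4 μIU) preincubated 60 min with compound (5% DMSO final) in 50 mM HEPES, 1 mM EDTA, 1% PEG 8000, 1 mM DTT, 0.1% BSA, pH 7.4, then tandem-GFP substrate added at 650 nM final. FRET fluorescence read; IC50 from 11-point curves spanning 100 μM–1 pM.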

COc1ccccc1COCCCOc1ccc(N2C(=O)CNC[C@@H]2COCc2cccc(Cl)c2)cc1 [Example 6, (6R)-6-(3-chlorobenzyloxymethyl)-1-{4-[3-(2-methoxybenzyloxy)-propoxy]-phenyl}-piperazin-2-one]
IC50: 325 nM

COc1ccccc1COCCCOc1ccc(N2C(=O)CNC[C@@H]2COc2ccc(NC(C)=O)cc2)cc1 [Example 93, N-[4-([2R]-1-{4-[3-(2-methoxybenzyloxy)-propoxy]-phenyl}-6-oxopiperazin-2-ylmethoxy)-phenyl]-acetamide]
IC50: > 1000 nM

COc1ccccc1COCCCOc1ccc(N2C(=O)CNC[C@@H]2COc2ccc3cccnc3c2)cc1 [Example 41, (6R)-1-{4-[3-(2-methoxybenzyloxy)-propoxy]-phenyl}-6-(quinolin-7-yloxymethyl)-piperazin-2-one]
IC50: 822 nM

COc1ccccc1COCCCOc1ccc(N2C(=O)CNC[C@@H]2COC(=O)c2ccc(Cl)cc2)cc1 [Example 60, 4-chloro-benzoic acid (2R)-1-{4-[3-(2-methoxybenzyloxy)-propoxy]-phenyl}-6-oxopiperazin-2-yl methyl ester]
IC50: > 1000 nM

COc1ccccc1COCCCOc1ccc(N2CCNC[C@@H]2COCc2ccc3ccccc3c2)cc1 [Example 90, (2R)-1-{4-[3-(2-methoxybenzyloxy)-propoxy]-phenyl}-2-(naphthalen-2-ylmethoxymethyl)-piperazine]
IC50: 1700 nM

COc1ccccc1COCCCOc1ccc(N2C(=O)CNC[C@@H]2COc2cnccn2)cc1 [Example 79, (6R)-1-{4-[3-(2-methoxybenzyloxy)-propoxy]-phenyl}-6-(pyrazin-2-yloxymethyl)-piperazin-2-one]
IC50: 76400 nM

COc1ccccc1COCCCOc1ccc(N2C(=O)CNC[C@@H]2COc2ccc3c(c2)N(Cc2cscn2)CCC3)cc1 [Example 55, (6R)-1-{4-[3-(2-methoxybenzyloxy)-propoxy]-phenyl}-6-(1-thiazol-4-ylmethyl-1,2,3,4-tetrahydroquinolin-7-yloxymethyl)-piperazin-2-one]
IC50: 379 nM

COc1ccccc1COCCCOc1ccc(N2C(=O)CNC[C@@H]2COc2cccc(-c3ccccc3)c2)cc1 [Example 106, (6R)-6-(biphenyl-3-yloxymethyl)-1-{4-[3-(2-methoxybenzyloxy)-propoxy]-phenyl}-piperazin-2-one]
IC50: 1510 nM

COc1ccccc1COCCCOc1ccc(N2CCNC[C@@H]2COc2ccc3ccccc3c2)cc1 [Example 32, (2R)-1-{4-[3-(2-methoxybenzyloxy)-propoxy]-phenyl}-2-(naphthalen-2-yloxymethyl)-piperazine]
IC50: 153 nM

c1ccc(COCCCOc2ccc(N3CCNC[C@@H]3COc3ccc4ccccc4c3)cc2)cc1 [Example 38, (2R)-1-[4-(3-benzyloxypropoxy)-phenyl]-2-(naphthalen-2-yloxymethyl)-piperazine]
IC50: 1420 nM

COc1ccccc1COCCCOc1ccc(N2C(=O)CNC[C@@H]2COC(=O)c2ccc(C)cc2)cc1 [Example 59, 4-methyl-benzoic acid (2R)-1-{4-[3-(2-methoxybenzyloxy)-propoxy]-phenyl}-6-oxopiperazin-2-yl methyl ester]
IC50: > 1000 nM

COc1ccccc1COCCCOc1ccc(N2C(=O)CNC[C@@H]2COCc2ccccc2)cc1 [Example 45, (6R)-6-benzyloxymethyl-1-{4-[3-(2-methoxybenzyloxy)-propoxy]-phenyl}-piperazin-2-one]
IC50: 7010 nM

COc1ccccc1COCCCOc1ccc(N2C(=O)CNC[C@@H]2CNC(=O)c2ccccc2F)cc1 [Example 86, 2-fluoro-N-([2R]-1-{4-[3-(2-methoxybenzyloxy)-propoxy]-phenyl}-6-oxopiperazin-2-ylmethyl)-benzamide]
IC50: > 1000 nM

COc1ccc(COC[C@H]2CNCCN2c2ccc(OCCCOCc3cccc(OC)c3)cc2)cc1 [Example 69, (2R)-2-(4-methoxybenzyloxymethyl)-1-{4-[3-(3-methoxybenzyloxy)-propoxy]-phenyl}-piperazine]
IC50: 15600 nM

COc1ccccc1COCCCOc1ccc(N2C(=O)CNC[C@@H]2COCc2ccc(F)c(F)c2)cc1 [Example 4, (6R)-6-(3,4-difluorobenzyloxymethyl)-1-{4-[3-(2-methoxybenzyloxy)-propoxy]-phenyl}-piperazin-2-one]
IC50: 246 nM

COc1ccc(COC[C@H]2CNCCN2c2ccc(OCc3ccccc3)cc2)cc1 [Example 36, (2R)-1-(4-benzyloxyphenyl)-2-(4-methoxybenzyloxymethyl)-piperazine]
IC50: > 1000 nM

COc1ccccc1COCCCOc1ccc(N2C(=O)CNC[C@@H]2COCc2ccccc2OC)cc1 [Example 10, (6R)-6-(2-methoxybenzyloxymethyl)-1-{4-[3-(2-methoxybenzyloxy)-propoxy]-phenyl}-piperazin-2-one]
IC50: 880 nM

COc1ccccc1COCCCOc1ccc(N2C(=O)CNC[C@@H]2COc2ccc3ccccc3c2)cc1F [Example 39, (6R)-1-{3-fluoro-4-[3-(2-methoxybenzyloxy)-propoxy]-phenyl}-6-(naphthalen-2-yloxymethyl)-piperazin-2-one]
IC50: 152 nM

COc1ccccc1COCCCOc1ccc(N2C(=O)CNC[C@@H]2COCc2ccc(Cl)c(Cl)c2)cc1 [Example 2, (6R)-6-(3,4-dichlorobenzyloxymethyl)-1-{4-[3-(2-methoxybenzyloxy)-propoxy]-phenyl}-piperazin-2-one]
IC50: 181 nM

COc1ccccc1COCCCOc1ccc(N2C(=O)CNC[C@H]2COc2ccc3ccccc3c2)cc1 [Example 1, (6S)-1-{4-[3-(2-methoxybenzyloxy)-propoxy]-phenyl}-6-(naphthalen-2-yloxymethyl)-piperazin-2-one]
IC50: 66 nM

COc1ccc(COC[C@H]2CNCCN2c2ccc(OCCCOCc3ccc(C)cc3)cc2)cc1 [Example 68, (2R)-2-(4-methoxybenzyloxymethyl)-1-{4-[3-(4-methylbenzyloxy)-propoxy]-phenyl}-piperazine]
IC50: 60200 nM

COc1ccccc1COCCCOc1ccc(N2C(=O)CNC[C@@H]2COCc2cc(Cl)cc(Cl)c2)cc1 [Example 20, (6R)-6-(3,5-dichlorobenzyloxymethyl)-1-{4-[3-(2-methoxybenzyloxy)-propoxy]-phenyl}-piperazin-2-one]
IC50: > 1000 nM

COc1ccccc1COCCCOc1ccc(N2C(=O)CNC[C@@H]2COc2ccc3c(c2)N(CCNC(C)=O)CCC3)cc1 [Example 124, N-{2-[7-([2R]-1-{4-[3-(2-Methoxybenzyloxy)-propoxy]-phenyl}-6-oxopiperazin-2-ylmethoxy)-3,4-dihydro-2H-quinolin-1-yl]-ethyl}-acetamide]
IC50: 0.35 nM

COc1ccccc1COCCCOc1ccc(N2C(=O)CNC[C@@H]2COCc2ccc(F)cc2Cl)cc1 [Example 22, (6R)-6-(2-chloro-4-fluorobenzyloxymethyl)-1-{4-[3-(2-methoxybenzyloxy)-propoxy]-phenyl}-piperazin-2-one]
IC50: > 1000 nM

COc1ccccc1OCCCOCc1ccc(N2CCNC[C@@H]2COc2ccc3ccccc3c2)cc1 [Example 97, (2R)-1-(4-[3-(2-methoxyphenoxy)-propoxymethyl]-phenyl)-2-(naphthalene-2-yloxymethyl)-piperazine]
IC50: 26300 nM

CCOc1ccccc1COCCCOc1ccc(N2CCNC[C@@H]2COc2ccc3ccccc3c2)cc1 [Example 88, (2R)-1-{4-[3-(2-ethoxybenzyloxy)-propoxy]-phenyl}-2-(naphthalen-2-yloxymethyl)-piperazine]
IC50: 1980 nM

CCOC(=O)CN1C(=O)COc2ccc(SC[C@H]3CNCC(=O)N3c3ccc(OCCCOCc4ccccc4OC)cc3)cc21 [Example 129, [6-([2R]-1-{4-[3-(2-Methoxybenzyloxy)-propoxy]-phenyl}-6-oxo-piperazin-2-ylmethylsulfanyl)-3-oxo-2,3-dihydro-benzo[1,4]oxazin-4-yl]-acetic acid ethyl ester]
IC50: 0.17 nM

COc1ccccc1CSCCCOc1ccc(N2C(=O)CNC[C@@H]2COc2ccc3ccccc3c2)cc1 [Example 101, (6R)-1-{4-[3-(2-methoxybenzylsulfanyl)-propoxy]-phenyl}-6-(naphthalene-2-yloxymethyl)-piperazin-2-one]
IC50: > 1000 nM

COc1ccccc1COCCCOc1ccc(N2C(=O)CNC[C@@H]2COc2ccc3ccccc3c2)cc1 [Example 37, (6R)-1-{4-[3-(2-methoxybenzyloxy)-propoxy]-phenyl}-6-(naphthalen-2-yloxymethyl)-piperazin-2-one]
IC50: 54 nM

O=C(NCCOc1ccccc1)c1ccc(N2C(=O)CNC[C@@H]2COc2ccc3ccccc3c2)cc1 [Example 53, 4-[(2R)-2-(naphthalen-2-yloxymethyl)-6-oxopiperazin-1-yl]-N-(2-phenoxyethyl)-benzamide]
IC50: > 1000 nM

COc1ccccc1COCCCOc1ccc(N2C(=O)CNC[C@@H]2COCc2ccc(F)cc2)cc1 [Example 8, (6R)-6-(4-fluorobenzyloxymethyl)-1-{4-[3-(2-methoxybenzyloxy)-propoxy]-phenyl}-piperazin-2-one]
IC50: 454 nM

COc1ccccc1COCCCOc1ccc(N2C(=O)CNC[C@@H]2COCc2ccc(Cl)cc2)cc1 [Example 5, (6R)-6-(4-chlorobenzyloxymethyl)-1-{4-[3-(2-methoxybenzyloxy)-propoxy]-phenyl}-piperazin-2-one]
IC50: 295 nM

COc1ccccc1COCCCOc1ccc(N2C(=O)CNC[C@@H]2CNC(=O)c2ccc3ccccc3c2)cc1 [Example 85, naphthalene-2-carboxylic acid ([2R]-1-{4-[3-(2-methoxybenzyloxy)-propoxy]-phenyl}-6-oxopiperazin-2-ylmethyl)-amide]
IC50: > 1000 nM
